Measurements reported in ChEMBL document CHEMBL1201862, “PubChem BioAssay data set” (2004).
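48-hour exposure; five concentrations; linearly interpolated endpoints. Here, GI50 denotes the concentration required for 50% inhibition of growth.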 Activity calls are given as the source filed them. No stated cut-off is given here; in the data, active = GI50 up to about 1.1 µM and inactive = higher.

How the values were obtained:
Assay in all cases: NCI-60 cell line screen, 48 h
SNB-75 = system: SNB-75
K562 = system: K562
KM12 = system: KM12
NCI-H226 = system: NCI-H226
TK-10 = system: TK-10
SF-268 = system: SF-268
HCT-15 = system: HCT-15
HOP-62 = system: HOP-62
CCRF-CEM = system: CCRF-CEM
MCF7 = system: MCF7
SF-539 = system: SF-539
SK-OV-3 = system: SK-OV-3
HCT-116 = system: HCT-116
OVCAR-4 = system: OVCAR-4
EKVX = system: EKVX
COLO 205 = system: COLO 205
MOLT-4 = system: MOLT-4
MDA-MB-435 = system: MDA-MB-435
RXF 393 = system: RXF 393
M14 = system: M14

| SMILES | GI50 (SNB-75) | GI50 (K562) | GI50 (KM12) | GI50 (NCI-H226) | GI50 (TK-10) | GI50 (SF-268) | GI50 (HCT-15) | GI50 (HOP-62) | GI50 (CCRF-CEM) | GI50 (MCF7) | GI50 (SF-539) | GI50 (SK-OV-3) | GI50 (HCT-116) | GI50 (OVCAR-4) | GI50 (EKVX) | GI50 (COLO 205) | GI50 (MOLT-4) | GI50 (MDA-MB-435) | GI50 (RXF 393) | GI50 (M14) |
| --- | --- | --- | --- | --- | --- | --- | --- | --- | --- | --- | --- | --- | --- | --- | --- | --- | --- | --- | --- | --- |
| Cc1c2ccccc2c(CSC(=N)N)c2ccccc12 | 0.178 µM (active) | 0.2 µM (active) | 0.218 µM (active) | 0.247 µM (active) | 0.222 µM (active) | 0.0738 µM (active) | 0.269 µM | 0.241 µM (active) | 0.0203 µM (active) | 0.104 µM (active) | 0.118 µM (active) | 0.344 µM (active) | 0.189 µM (active) | 0.174 µM (active) | 0.304 µM (active) | 0.14 µM (active) | 0.0284 µM (active) | 0.181 µM (active) | 0.0715 µM (active) | 0.211 µM (active) |
| CCOC(=O)Cc1nc2cc(F)c(F)cc2[nH]c1=O | > 100 µM (inactive) | > 100 µM (inactive) | > 100 µM (inactive) | > 100 µM (inactive) | > 100 µM (inactive) | > 100 µM (inactive) | > 100 µM | > 100 µM (inactive) | > 100 µM (inactive) | > 100 µM (inactive) | > 100 µM (inactive) | > 100 µM (inactive) | > 100 µM (inactive) | > 100 µM (inactive) | > 100 µM (inactive) | > 100 µM (inactive) | > 100 µM (inactive) | > 100 µM (inactive) | > 100 µM (inactive) | > 100 µM (inactive) |
| CCN(CC)C1Oc2cc3c(cc2C(c2cc(OC)c(OC)c(OC)c2)C1C)OCO3 (stereo not given) | 4.25 µM (inactive) | 0.308 µM (active) | 0.53 µM (active) | 0.875 µM (active) | 26.5 µM (inactive) | 3.61 µM (inactive) | 0.518 µM | 0.471 µM (active) | 0.406 µM (active) | 0.435 µM (active) | 0.457 µM (active) | 1.1 µM (active) | 0.465 µM (active) | 16.1 µM (inactive) | 10.4 µM (inactive) | 0.875 µM (active) | 0.871 µM (active) | 0.113 µM (active) | 0.839 µM (active) | 0.64 µM (active) |
| O=C1C=CC(=O)c2c1ccc1c3ccccc3n(CCCCCn3c4ccccc4c4ccc5c(c43)C(=O)C=CC5=O)c21 | 14.9 µM (inactive) | 2.06 µM (inactive) | > 100 µM (inactive) | > 100 µM (inactive) | 12.4 µM (inactive) | 15.7 µM (inactive) | 17.2 µM | > 91.4 µM (inactive) | 0.454 µM (active) | 19.7 µM (inactive) | 16.1 µM (inactive) | > 100 µM (inactive) | 12.8 µM (inactive) | > 10 µM (inactive) | 33.3 µM (inactive) | 15.2 µM (inactive) | 1.52 µM (inactive) | 22 µM (inactive) | 5.68 µM (inactive) | 20.1 µM (inactive) |
| CN(C)c1ccc(/N=C2/C=CC(=C(C#N)C#N)c3ccccc32)cc1 | 0.363 µM (active) | 0.0723 µM (active) | 0.381 µM (active) | 0.236 µM (active) | 1.82 µM (inactive) | 0.38 µM (active) | 0.195 µM | 0.468 µM (active) | 0.094 µM (active) | 0.178 µM (active) | 0.208 µM (active) | 0.332 µM (active) | 0.117 µM (active) | 0.906 µM (active) | 0.955 µM (active) | 0.0957 µM (active) | 0.196 µM (active) | 0.0391 µM (active) | 0.46 µM (active) | 0.145 µM (active) |
| CC(C)CC1C(=O)OC(C)(C)OC1=O | > 100 µM (inactive) | > 100 µM (inactive) | > 100 µM (inactive) | > 100 µM (inactive) | > 100 µM (inactive) | > 100 µM (inactive) | > 100 µM | > 100 µM (inactive) | > 100 µM (inactive) | > 100 µM (inactive) | > 100 µM (inactive) | > 100 µM (inactive) | > 100 µM (inactive) | > 100 µM (inactive) | > 100 µM (inactive) | > 100 µM (inactive) | > 100 µM (inactive) | > 100 µM (inactive) | > 100 µM (inactive) | > 100 µM (inactive) |
